From patent US10351522B2, “Sulfonamide derivative and pharmaceutically acceptable acid addition salt thereof” (UNIVERSITY OF TSUKUBA, priority 2015, dated 2019)

Legend:
[1] = target: T1, human OX1R (Homo sapiens, UniProt O43613); experiment: Agonist activity against OX1R: intracellular calcium (Fura-2AM, FDSS7000) in CHOOX1R cells; type: cell-based; conditions: relative to orexin-A as full agonist (100%)
T1 construct: expressed in transfected cells; host or cells: CHO (Chinese hamster ovary) cells, line CHOOX1R, co-expressing NFAT-luciferase
T1 sequence (O43613 1-425): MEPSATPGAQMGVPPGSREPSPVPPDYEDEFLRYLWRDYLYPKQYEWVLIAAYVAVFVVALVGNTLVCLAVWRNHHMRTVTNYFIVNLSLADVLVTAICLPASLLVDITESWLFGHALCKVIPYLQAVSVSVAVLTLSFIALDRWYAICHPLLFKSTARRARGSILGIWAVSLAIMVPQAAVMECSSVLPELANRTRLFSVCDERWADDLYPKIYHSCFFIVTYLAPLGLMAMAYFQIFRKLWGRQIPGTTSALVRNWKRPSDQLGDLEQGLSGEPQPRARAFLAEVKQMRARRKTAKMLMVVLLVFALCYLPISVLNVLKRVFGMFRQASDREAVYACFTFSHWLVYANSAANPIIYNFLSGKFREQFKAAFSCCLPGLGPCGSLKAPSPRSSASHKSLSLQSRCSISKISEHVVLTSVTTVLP
Protocol: (§1) Evaluation of Agonist Activity Against OX1R and OX2R
(§2) NAFT-luciferase gene and human OX1R gene were constitutively expressed in CHO cell, which is a cell line derived from Chinese hamster ovary to establish a cell line (CHOOX1R) and NAFT-luciferase gene and human OX2R gene were constitutively expressed in CHO cell to establish a cell line (CHOOX2R). The respective cells were seeded in a 96-well Multiplate at 10,000 cells/well and cultured in a 5% FBS (Thermo Scientific)-added DMEM medium (Sigma-Aldrich) for 48 hr. The medium was removed, an assay buffer (20 mM HEPES (Sigma-Aldrich), Hanks' balanced salt solution (Gibco), 0.1% BSA (Sigma-Aldrich), 2.5 mM probenecid acid (Wako Pure Chemical Industries, Ltd.)) (100 μL) containing 5 μM Fura-2AM (Cayman Chemical) was added, and the cells were incubated for 60 min. The buffer containing Fura-2AM was removed, and an assay buffer (75 μL) was added. An assay buffer (25 μL) containing a test compound was added thereto to start the reaction. Changes in the intracellular calcium ion concentration due to the reaction were measured by measuring the fluorescence intensity ratio by dual wavelength excitation at 340 and 380 nm, by using FDSS7000 (Hamamatsu Photonics K.K.). The test compound was dissolved in DMSO to 10 mM, and diluted with the assay buffer to a final concentration of 10^−7M to 10^−5M (final concentration of DMSO 1%).
(§3) (As used herein, Response in Table 21 to Table 27 is a value obtained by dividing the agonist activity value, when the test compound is evaluated with orexin-A as a full-agonist (maximum value of agonist activity: 100%), at 10 μM, 1.0 μM, 0.1 μM by the agonist activity value of orexin-A.)

[2] = target: T2, human OX2R (Homo sapiens, UniProt O43614); experiment: Agonist activity against OX2R: intracellular calcium (Fura-2AM, FDSS7000) in CHOOX2R cells; type: cell-based; conditions: relative to orexin-A as full agonist (100%)
T2 construct: expressed in transfected cells; host or cells: CHO (Chinese hamster ovary) cells, line CHOOX2R, co-expressing NFAT-luciferase
T2 sequence (O43614 1-444): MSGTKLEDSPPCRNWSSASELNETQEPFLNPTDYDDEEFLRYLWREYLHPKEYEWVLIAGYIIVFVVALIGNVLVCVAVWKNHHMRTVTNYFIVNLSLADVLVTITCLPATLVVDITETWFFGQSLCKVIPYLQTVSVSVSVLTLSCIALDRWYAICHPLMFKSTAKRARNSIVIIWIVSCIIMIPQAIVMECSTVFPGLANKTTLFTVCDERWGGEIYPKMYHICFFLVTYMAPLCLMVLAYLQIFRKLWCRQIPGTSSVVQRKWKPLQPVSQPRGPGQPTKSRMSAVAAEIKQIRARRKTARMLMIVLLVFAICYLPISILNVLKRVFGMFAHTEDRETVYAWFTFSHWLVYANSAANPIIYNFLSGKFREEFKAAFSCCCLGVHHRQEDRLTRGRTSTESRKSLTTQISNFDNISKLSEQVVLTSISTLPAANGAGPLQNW
Protocol: as §1, §2, §3

SMILES | Response (%) OX1R ([1]; 0.1 μM test compound) | Response (%) OX1R ([1]; 1.0 μM test compound) | Response (%) OX1R ([1]; 10 μM test compound) | Response (%) OX2R ([2]; 0.1 μM test compound) | Response (%) OX2R ([2]; 1.0 μM test compound) | Response (%) OX2R ([2]; 10 μM test compound) | Response (%) OX1R ([1]; test compound 0.1 μM) | Response (%) OX1R ([1]; test compound 1.0 μM) | Response (%) OX1R ([1]; test compound 10 μM) | Response (%) OX2R ([2]; test compound 0.1 μM) | Response (%) OX2R ([2]; test compound 1.0 μM) | Response (%) OX2R ([2]; test compound 10 μM) | Emax at 0.1 µM ([1]; test compound 0.1 μM, read-out: Response (%) OX1R) | Emax at 1 µM ([1]; test compound 1.0 μM, read-out: Response (%) OX1R) | Emax at 10 µM ([1]; test compound 10 μM, read-out: Response (%) OX1R)
COc1ccc(-c2cccc(C(=O)N(C)C)c2)cc1S(=O)(=O)Nc1cccc(NC(=O)c2cccc(Br)c2)c1 [Example 3] | 14% | 9% | 12% | <5% | 6% | 23% | – | – | – | – | – | – | – | – | –
CNc1cccc(NS(=O)(=O)c2cc(-c3cccc(C(=O)N(C)C)c3)ccc2OC)c1 [Example 95, 4′-methoxy-N,N-dimethyl-3′-(N-(3-(methylamino)phenyl)sulfamoyl)-[1,1′-biphenyl]-3-carboxamide] | – | – | – | – | – | – | – | – | – | <5% | 11% | 68% | < 5% | < 5% | < 5%
COc1ccc(-c2cccc(C(=O)N(C)C)c2)cc1S(=O)(=O)Nc1cccc(N=Nc2ccc(O)cc2NC(=O)OC(C)(C)C)c1 [Example 98] | – | – | – | – | – | – | 8% | 8% | 9% | 13% | 11% | 67% | – | – | –
COc1ccc(-c2cccc(C(=O)N(C)C)c2)cc1S(=O)(=O)Nc1cccc(NC(=O)c2ccc(N(C)C)cc2)c1 [Example 8] | 9% | 8% | 27% | 8% | 13% | 61% | – | – | – | – | – | – | – | – | –
COc1ccc(-c2cccc(C(=O)N(C)C)c2)cc1S(=O)(=O)Nc1cccc(NC(=O)Nc2cc(OC)c(OC)c(OC)c2)c1 [Example 54] | <5% | <5% | 10% | 91% | 71% | 61% | – | – | – | – | – | – | – | – | –
COc1ccc(-c2cccc(C(=O)N(C)C)c2)cc1S(=O)(=O)Nc1cccc(NC(=O)Nc2ccc(NC(=O)OC(C)(C)C)cc2)c1 [Example 72] | <5% | <5% | <5% | 7% | 59% | 79% | – | – | – | – | – | – | – | – | –

Now from value to compound:

Response (%) OX1R ([1]; 0.1 μM test compound) | Response (%) OX1R ([1]; 1.0 μM test compound) | Response (%) OX1R ([1]; 10 μM test compound) | Response (%) OX2R ([2]; 0.1 μM test compound) | Response (%) OX2R ([2]; 1.0 μM test compound) | Response (%) OX2R ([2]; 10 μM test compound) | Response (%) OX1R ([1]; test compound 0.1 μM) | Response (%) OX1R ([1]; test compound 1.0 μM) | Response (%) OX1R ([1]; test compound 10 μM) | Response (%) OX2R ([2]; test compound 0.1 μM) | Response (%) OX2R ([2]; test compound 1.0 μM) | Response (%) OX2R ([2]; test compound 10 μM) | Emax at 0.1 µM ([1]; test compound 0.1 μM, read-out: Response (%) OX1R) | Emax at 1 µM ([1]; test compound 1.0 μM, read-out: Response (%) OX1R) | Emax at 10 µM ([1]; test compound 10 μM, read-out: Response (%) OX1R) | SMILES
– | – | – | – | – | – | 9% | 8% | 9% | 11% | 36% | 71% | – | – | – | CN(C)C(=O)c1cccc(-c2ccc(Cl)c(S(=O)(=O)Nc3cccc(NC(=O)Nc4cccc(N(C)C)c4)c3)c2)c1 [Example 118]
– | – | – | – | – | – | 8% | 7% | 8% | 9% | 78% | 147% | – | – | – | COc1ccc(-c2cccc(C(=O)N(C)C)c2)cc1S(=O)(=O)Nc1cccc(NC(=O)Nc2cccc(N(C)C)c2)n1 [Example 124]
– | – | – | – | – | – | <5% | <5% | <5% | 4% | 27% | 84% | – | – | – | COc1ccc(C(=O)NCc2cccnc2)cc1S(=O)(=O)Nc1cccc(NC(=O)Nc2cccc(N(C)C)c2)c1 [Example 103]
– | – | – | – | – | – | 8% | 9% | 7% | 7% | 6% | 39% | – | – | – | COc1ccc(C(=O)NCc2cccnc2)cc1S(=O)(=O)Nc1cccc(NC(=O)Nc2ccc(N(C)C)cc2)c1 [Example 109]
